Data set [1] in a line: Plasma protein binding, Rapid Equilibrium Dialysis. Type of data set: in vitro ADME. The conditions noted are these: both sexes, Sprague Dawley, plasma (EDTA K2, pooled), rat plasma, 4 h at 37 °C, read-out: PPB (converted). The protocol: Appendix 2. Pharmaco kinetics an d P l a s ma Protein Binding […]
Plasma Protein Binding Assay. PPB was determined with a Rapid Equilibrium Dialysis device using 8 kDa molecular weight cut-off inserts (Fisher Scientific UK Ltd, Leicest ershire, UK) as described b y the manufacturer. R at (Sprague Dawl e y strain) plasma EDTA K2 (mixed gender, pooled, SeraLab, West Sussex, UK) was thawed and centrifuged at 13,000 x g for 10 min to remove precipitates before being spiked with compounds (5 µM). The concentrations of compounds in the plasma and buffer chambers were determined b y LC -MS-MS (AB Sciex 3200 QTrap) anal ysis after 4 h incubation at 37 °C. Binding was calculated from the concentration percentage in both chambers as shown below. Assays were p erfo rmed in replicate and the data
(In general: In equilibrium dialysis only unbound substance equilibrates across the membrane.)

For data set [2], the target named is T1, angiotensin converting enzyme from rabbit lung (Oryctolagus cuniculus, UniProt P12822).
T1 construct: rabbit lung; from tissue; host or cells: rabbit lung
T1 sequence (P12822 34-1310): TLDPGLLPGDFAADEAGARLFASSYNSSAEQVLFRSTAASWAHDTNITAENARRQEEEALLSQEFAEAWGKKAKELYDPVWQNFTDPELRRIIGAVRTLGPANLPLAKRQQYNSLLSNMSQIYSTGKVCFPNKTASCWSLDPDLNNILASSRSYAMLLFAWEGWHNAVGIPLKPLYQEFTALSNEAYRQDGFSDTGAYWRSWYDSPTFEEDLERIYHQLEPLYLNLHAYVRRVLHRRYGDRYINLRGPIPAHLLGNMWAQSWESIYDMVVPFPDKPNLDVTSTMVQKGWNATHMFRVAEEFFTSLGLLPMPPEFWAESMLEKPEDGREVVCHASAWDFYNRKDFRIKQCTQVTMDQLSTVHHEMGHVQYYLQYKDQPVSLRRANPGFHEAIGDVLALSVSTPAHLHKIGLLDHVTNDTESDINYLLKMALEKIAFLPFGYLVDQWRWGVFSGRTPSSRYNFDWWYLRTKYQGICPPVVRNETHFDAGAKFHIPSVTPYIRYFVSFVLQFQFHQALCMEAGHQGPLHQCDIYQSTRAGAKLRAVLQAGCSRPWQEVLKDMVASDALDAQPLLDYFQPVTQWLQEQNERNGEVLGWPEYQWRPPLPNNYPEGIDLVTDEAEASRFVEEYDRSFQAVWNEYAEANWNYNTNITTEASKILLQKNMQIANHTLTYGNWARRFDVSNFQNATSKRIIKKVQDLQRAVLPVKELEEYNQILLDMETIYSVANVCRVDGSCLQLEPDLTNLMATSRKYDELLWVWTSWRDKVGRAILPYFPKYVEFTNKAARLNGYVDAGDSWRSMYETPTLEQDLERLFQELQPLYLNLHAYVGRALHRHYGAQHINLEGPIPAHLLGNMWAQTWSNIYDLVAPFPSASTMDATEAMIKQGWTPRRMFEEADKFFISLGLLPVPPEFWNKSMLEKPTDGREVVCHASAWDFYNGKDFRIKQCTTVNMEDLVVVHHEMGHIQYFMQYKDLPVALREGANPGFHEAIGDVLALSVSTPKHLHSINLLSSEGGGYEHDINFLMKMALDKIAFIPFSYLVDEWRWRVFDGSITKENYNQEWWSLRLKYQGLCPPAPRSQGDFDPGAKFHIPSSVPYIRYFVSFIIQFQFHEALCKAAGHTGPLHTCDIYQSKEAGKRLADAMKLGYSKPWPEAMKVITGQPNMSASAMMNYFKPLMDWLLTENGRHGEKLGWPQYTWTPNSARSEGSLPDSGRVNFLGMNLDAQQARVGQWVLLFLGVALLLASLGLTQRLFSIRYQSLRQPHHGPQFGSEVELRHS
Nature of the data set: Protease counter-screening: Angiotensin converting enzyme. Type of data set: biochemical. Here is the method:
Appendix 7. Protease Counter -Screening
Protease counter-screeni ng was performed using the methods described below. Initial screening was conducted in duplicate using a single test substance concentration of 10 µ M .
Additional assays were conducted in replicate for selected pairin gs of test s ubstance and enz yme in order to enable the determination of IC50 values using conventional procedures.
Determination of K i was made using the Batch K i program (Biokin Ltd, Pullman, WA) to derive values from the Morrison equation: […]
MMP-9: Human recombinant MMP-9 proenz yme ex pressed in mammalian cells was activated with APMA for 60 min at 37 °C. […] The amount of MCA-P LG formed was read spectrofluorimetricall y at 340 nm/400 nm.
ADAM-17/TACE: Human recombinant ADAM-17 expressed in Sf21 insect cells was used as enz yme sour ce. […] T he amount of MCA-P LAQA formed w as read spectro fluorimetricall y at 340 nm/400 nm.
Angiotensin converting enzyme: Test compound or vehicle was pre- incubated in modified HEPES buffer pH 7.5 for 15 min at 25 °C with 31 mU/mL angiotensin converting enz yme from rabbit lung. […] The amount of substrate remaining was read spectrophotometricall y at 340 nm and used to deri ve the extent of reaction and its inhibition. […]

The structures appear in SMILES notation.

As a reminder, the inhibition is the change of the read-out against control, counted positive when it falls. Read a high inhibition as strong suppression. For the compound `CC(C)[C@H](NC(=O)[C@H](C)NC(=O)[C@@H](NC(=O)c1ccccc1)C(C)(C)C)C(=O)C(=O)NCc1ccccc1` [Compound 38, N-{(S)-1-[(S)-1-((S)-1-Benzylaminooxalyl-2-methyl-propylcarbamoyl)-ethylcarbamoyl]-2,2-dimethyl-propyl}-benzamide], the fraction unbound at 4 h, 5 µM in data set [1] was 0.04. Further, at 10 µM the inhibition in data set [2] was 0%.

(Values after PMC4257840 (Journal of Medicinal Chemistry, 2014).)
